In patent US20260125359A1, “HETEROARYL COMPOUNDS AS MULTI-TARGET PROTEIN KINASE INHIBITORS” (FUJIAN HAIXI PHARMACEUTICALS CO., LTD., priority 2023, published 2026) one finds inhibition data, which are given here for twelve compounds.

Molecules are shown by their SMILES.

In one experiment the target is CSF-1R (Homo sapiens, UniProt P07333). Briefly: CSF-1R in vitro kinase activity assay (HTRF kinEASE TK). The following applies: for inhibition at 0.01 µM: compound 10 nM, read-out: CSF-1R inhibition rate, 10 nM; for inhibition at 0.1 µM: compound 100 nM, read-out: CSF-1R inhibition rate, 100 nM. The class given is biochemical. From the text:
(§1) CSF-1R, PDGFR-α, KDR (VEGFR2) and KIT in vitro Kinase Activity Assay:
(§2) • ENVISION (Perkinelmer, 2104) • White 384-well MicroPlate (Cat #264706, Nunc) • HTRF kinEASE TK kit main reagents (Cat #62TKOPEC, Cisbio) • TK-biotin substrate • Streptavidin-XL665 • TK Antibody-Cryptate • 5× Enzymatic buffer (5×KB) • Staphylococcal enterotoxin B (SEB) • HTRF Detection buffer • CSF-1R (Cat #PV3249, Invitrogen) • PDGFR-α (Cat #PV3811, Invitrogen) • KDR (Cat #PV3660, Invitrogen) • KIT (Cat #08-156, Carna) • ATP 10 mM (Cat #PV3227, Invitrogen) • DTT 1 M (Cat #D5545, Sigma) • MgCl2 1 M (Cat #M8266, Sigma) • MnCl2 1 M (Cat #244589, Sigma)
(§3) Dilute Substrate-TK and ATP to 5× of the reaction concentration using 1× Kinase Buffer.
(§4) Prepare the 5× enzyme working solution using 1× Kinase Buffer.
(§5) Prepare the 4×Sa-XL665 working solution using Detection Buffer.
(§6) Dilute TK-Ab-Cryptate 100 times using Detection Buffer to prepare the working solution.
(§7) After all reagents were prepared according to the methods described above, except for the enzyme, they were equilibrated to room temperature before starting the sample addition. • a) First, 2.5% DMSO solutions were prepared separately using the pre-prepared 1× kinase buffer (DMSO concentrations that were too high could affect the reaction, so the final concentration of DMSO was controlled at 1%). Then, the corresponding 2.5% DMSO solution for the enzyme was used to dilute the test compounds. Compounds were screened with two concentrations of 100 nM and 10 nM. Except for the control wells, 4 μL of the diluted test compound solution was added to the reaction wells, and 4 μL of the pre-prepared 2.5% DMSO solution was added to the control wells. • b) 2 μL of the pre-prepared TK-biotin substrate solution at the corresponding concentration for the kinase was added to all reaction wells. • c) 2 μL of the pre-prepared enzyme solution at the corresponding concentration was added to all reaction wells except the negative control wells. For the negative control wells, 2 μL of 1× kinase buffer corresponding to the enzyme was added to make up the volume. The plate was sealed with sealing film, mixed gently, and incubated at room temperature for 10 min to allow the compounds to fully interact with the enzyme. • d) 2 μL of the ATP solution at the corresponding concentration for the enzyme was added to all reaction wells to initiate the kinase reaction. ATP concentrations and reaction times for enzyme screening are shown in Table 26 • e) Five minutes before the end of the kinase reaction, the detection solution was prepared. The detection buffer from the kit was used to prepare detection solutions for Streptavidin-XL665 and TK antibody europium cryptate (1:100) at the appropriate concentrations for the two enzymes. • f) After the kinase reaction was completed, 5 μL of the diluted Streptavidin-XL665 solution was added to all reaction wells. After mixing, the diluted TK antibody europium cryptate detection solution was immediately added. • g) The plate was sealed and mixed, incubated at room temperature for 1 hour, and the fluorescence signal was detected using the ENVISION (PerkinElmer) instrument (excitation at 320 nm, emission at 665 nm and 615 nm). The inhibition rate for each well was calculated based on the full-activity control wells and background signal wells, and the average value of the replicates was taken.
In general terms: TR-FRET usually uses a lanthanide donor and a delayed reading to cut background.

The next experiment deals with DDR1 (Homo sapiens, UniProt Q08345). As to the kind of experiment: DDR1 in vitro kinase activity assay (LanthaScreen Eu-anti-GST antibody / Kinase Tracer 178). The note with it: for inhibition at 0.01 µM: compound 10 nM, read-out: DDR1 inhibition rate, 10 nM; for inhibition at 0.1 µM: compound 100 nM, read-out: DDR1 inhibition rate, 100 nM. The class given is binding. On the procedure: DDR1 in vitro Kinase Activity Assay:
• ENVISION (Perkinelmer, 2104) • White 384-well MicroPlate (Cat #264706, Nunc) • DDR1 (Cat #PV6047, Invitrogen) • 5× Kinase Buffer A (Cat #PV3189, Invitrogen) • Kinase Tracer 178 (Cat #PV5593, Invitrogen) • LanthaScreen® Eu-anti-GST Antibody (Cat #PV5594, Invitrogen)
The compounds to be tested were tested at two concentrations of 100 nM and 10 nM.
Kinase/Antibody Mixtures Preparation: Dilute Kinase/Antibody Mixtures with 1× Kinase Buffer to form 3× working solutions with final concentrations of 5 nM kinase and 2 nM Eu-Anti-GST Antibody, respectively.
Kinase Tracer 178 Preparation: Dilute Kinase Tracer 178 with 1× Kinase Buffer to make a 3× working solution with a final concentration of 10 nM.
After all reagents were prepared according to the methods described above, except for the enzyme, they were equilibrated to room temperature before starting the sample addition. • a) First, 3% DMSO solutions were prepared separately using the pre-prepared 1× kinase buffer (DMSO concentrations that were too high could affect the reaction, so the final concentration of DMSO was controlled at 1%). Then, the corresponding 3% DMSO solution for the enzyme was used to dilute the test compounds. Compounds were screened with two concentrations of 100 nM and 10 nM. Except for the control wells, 5 μL of the diluted test compound solution was added to the reaction wells, and 5 μL of the pre-prepared 3% DMSO solution was added to the control wells. • b) 5 μL of the pre-prepared Kinase/Antibody mixtures was added to all reaction wells except the negative control wells. For the negative control wells, 5 μL of 1× kinase buffer corresponding to the enzyme was added to make up the volume. • c) 5 μL of the pre-prepared Kinase Tracer 178 solution was added to all reaction wells. • d) The plate was sealed and mixed, incubated at room temperature for 1 hour, and the fluorescence signal was detected using the ENVISION (PerkinElmer) instrument (excitation at 340 nm, emission at 665 nm and 615 nm). The inhibition rate for each well was calculated based on the full-activity control wells and background signal wells, and the average value of the replicates was taken.

For the next experiment, the target named is KIT (Homo sapiens, UniProt P10721). As to the kind of experiment: KIT in vitro kinase activity assay (HTRF kinEASE TK). The class given is biochemical. The note with it: for inhibition at 0.01 µM: compound 10 nM, read-out: KIT inhibition rate, 10 nM; for inhibition at 0.1 µM: compound 100 nM, read-out: KIT inhibition rate, 100 nM.
KIT, sequence (P10721 26-976): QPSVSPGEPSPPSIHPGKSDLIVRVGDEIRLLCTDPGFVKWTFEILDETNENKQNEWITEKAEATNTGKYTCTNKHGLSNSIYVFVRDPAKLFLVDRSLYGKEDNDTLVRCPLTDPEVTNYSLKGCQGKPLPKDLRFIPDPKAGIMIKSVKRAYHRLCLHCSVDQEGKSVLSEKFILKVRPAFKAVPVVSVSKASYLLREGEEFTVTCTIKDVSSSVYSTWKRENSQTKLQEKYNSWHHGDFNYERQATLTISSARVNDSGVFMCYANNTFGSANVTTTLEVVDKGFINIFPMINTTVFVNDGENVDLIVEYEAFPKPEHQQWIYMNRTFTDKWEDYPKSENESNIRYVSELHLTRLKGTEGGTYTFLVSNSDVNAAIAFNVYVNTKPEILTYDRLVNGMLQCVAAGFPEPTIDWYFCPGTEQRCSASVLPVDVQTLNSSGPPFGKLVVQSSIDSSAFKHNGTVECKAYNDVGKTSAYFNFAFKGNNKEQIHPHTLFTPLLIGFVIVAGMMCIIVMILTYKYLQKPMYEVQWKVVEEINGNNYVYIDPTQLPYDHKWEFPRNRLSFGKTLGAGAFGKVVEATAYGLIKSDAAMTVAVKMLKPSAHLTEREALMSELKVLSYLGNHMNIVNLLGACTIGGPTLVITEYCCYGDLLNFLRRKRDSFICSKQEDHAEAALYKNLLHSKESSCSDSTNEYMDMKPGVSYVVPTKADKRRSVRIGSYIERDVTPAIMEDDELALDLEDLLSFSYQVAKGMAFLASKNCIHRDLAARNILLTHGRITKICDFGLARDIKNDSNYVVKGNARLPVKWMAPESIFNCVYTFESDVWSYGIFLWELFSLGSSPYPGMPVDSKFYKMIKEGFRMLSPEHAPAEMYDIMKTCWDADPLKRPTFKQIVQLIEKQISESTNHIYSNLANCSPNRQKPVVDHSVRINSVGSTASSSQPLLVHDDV
Source text: as §1, §2, §3, §4, §5, §6, §7

CSF-1R, sequence (P07333 20-972): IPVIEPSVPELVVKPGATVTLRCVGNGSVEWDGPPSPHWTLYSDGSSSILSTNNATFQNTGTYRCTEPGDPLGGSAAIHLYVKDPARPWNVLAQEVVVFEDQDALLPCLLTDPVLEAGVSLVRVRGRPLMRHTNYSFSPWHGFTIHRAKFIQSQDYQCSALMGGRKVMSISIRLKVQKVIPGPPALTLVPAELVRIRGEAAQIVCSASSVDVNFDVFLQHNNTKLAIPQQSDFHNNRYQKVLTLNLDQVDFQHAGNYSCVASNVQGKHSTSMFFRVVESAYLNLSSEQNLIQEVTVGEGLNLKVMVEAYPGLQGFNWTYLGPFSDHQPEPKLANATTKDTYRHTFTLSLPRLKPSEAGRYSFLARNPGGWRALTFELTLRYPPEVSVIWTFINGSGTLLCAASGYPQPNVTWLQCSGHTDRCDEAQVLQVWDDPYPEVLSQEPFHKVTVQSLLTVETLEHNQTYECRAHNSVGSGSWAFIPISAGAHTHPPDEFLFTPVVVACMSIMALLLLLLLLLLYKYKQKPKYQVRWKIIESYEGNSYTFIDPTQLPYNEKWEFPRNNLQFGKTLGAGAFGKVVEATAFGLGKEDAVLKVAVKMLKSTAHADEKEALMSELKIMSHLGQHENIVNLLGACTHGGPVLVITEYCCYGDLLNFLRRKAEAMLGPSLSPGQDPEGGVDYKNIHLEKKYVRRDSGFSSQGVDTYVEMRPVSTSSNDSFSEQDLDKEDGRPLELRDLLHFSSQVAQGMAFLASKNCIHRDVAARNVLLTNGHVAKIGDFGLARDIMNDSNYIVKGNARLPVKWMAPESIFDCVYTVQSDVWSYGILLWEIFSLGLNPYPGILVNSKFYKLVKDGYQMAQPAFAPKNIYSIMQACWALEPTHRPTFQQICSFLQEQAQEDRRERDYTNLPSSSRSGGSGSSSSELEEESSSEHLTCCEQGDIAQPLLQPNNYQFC
DDR1, sequence (Q08345 19-913): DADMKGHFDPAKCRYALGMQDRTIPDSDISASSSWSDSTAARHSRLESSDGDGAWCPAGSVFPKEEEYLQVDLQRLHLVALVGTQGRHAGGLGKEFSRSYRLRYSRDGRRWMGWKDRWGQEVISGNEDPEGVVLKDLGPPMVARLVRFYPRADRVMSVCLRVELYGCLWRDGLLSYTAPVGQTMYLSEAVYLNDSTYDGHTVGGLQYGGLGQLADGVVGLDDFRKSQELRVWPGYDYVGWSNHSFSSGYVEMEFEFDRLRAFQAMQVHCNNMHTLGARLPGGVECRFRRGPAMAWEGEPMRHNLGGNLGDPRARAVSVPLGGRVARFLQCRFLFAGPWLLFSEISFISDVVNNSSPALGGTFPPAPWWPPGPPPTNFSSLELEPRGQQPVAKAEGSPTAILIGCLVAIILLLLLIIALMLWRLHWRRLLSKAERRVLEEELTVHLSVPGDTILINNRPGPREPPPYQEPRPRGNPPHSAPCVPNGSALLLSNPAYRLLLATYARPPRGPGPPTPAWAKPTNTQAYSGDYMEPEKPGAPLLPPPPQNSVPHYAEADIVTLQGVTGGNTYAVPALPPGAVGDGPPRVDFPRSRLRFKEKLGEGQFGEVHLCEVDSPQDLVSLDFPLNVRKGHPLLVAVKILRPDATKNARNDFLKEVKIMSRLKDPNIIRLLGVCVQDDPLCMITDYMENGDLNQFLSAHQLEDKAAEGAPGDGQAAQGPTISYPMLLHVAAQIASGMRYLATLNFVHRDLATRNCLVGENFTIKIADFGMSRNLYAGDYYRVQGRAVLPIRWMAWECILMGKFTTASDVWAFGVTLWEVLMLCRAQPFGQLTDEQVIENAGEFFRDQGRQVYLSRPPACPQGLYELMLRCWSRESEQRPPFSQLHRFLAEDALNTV

The inhibition is the change of the read-out against control, counted positive when it falls. Take `Cn1cc(-c2cncc(O[C@H]3CCc4c(C(=O)Nc5cncc(Cl)c5)cccc43)c2)cn1` [Compound 19a, (S)—N-(5-chloropyridin-3-yl)-1-((5-(1-methyl-1H-pyrazol-4-yl)pyridin-3-yl)oxy)-2,3-dihydro-1H-indene-4-carboxamide]: the inhibition at 0.01 µM on CSF-1R was 79.4%; on DDR1, 69.4%; on KIT, 22.1%. For the same compound, the inhibition at 0.1 µM at CSF-1R came out at 100%; on DDR1 it was 102%; on KIT, 48.6%.
As for `Cn1cc(-c2cncc(O[C@H]3CCc4c(C(=O)Nc5cccc(C6CC6)c5)cccc43)c2)cn1` [Compound 19b], the inhibition at 0.01 µM stood at 71.9% on CSF-1R, 84% on DDR1 and 11.2% at KIT. Further, the inhibition at 0.1 µM on CSF-1R was found to be 97.4%; on DDR1, 105%; at KIT, 80.2%.
As for `CN1CCc2nc(NC(=O)c3cccc4c3CC[C@@H]4Oc3cncc(-c4cnn(C)c4)c3)sc2C1` [Compound 19f], the inhibition at 0.01 µM at CSF-1R was found to be 27.5%; on DDR1 it was 23.1%; at KIT, 12.1%. The inhibition at 0.1 µM at CSF-1R turned out to be 95.4%; on DDR1, 53.5%; on KIT, 53.9%.
`CN(C)Cc1cncc(NC(=O)c2cccc3c2CC[C@@H]3Oc2cncc(-c3cnn(C)c3)c2)c1` [Compound 19h]: the inhibition at 0.01 µM on CSF-1R is 72%; at DDR1 it was 65.3%; at KIT, -3.9%. The inhibition at 0.1 µM at CSF-1R was 96.6%; at DDR1, 97.1%; on KIT it was 4.9%.
`Cc1cncc(NC(=O)c2cccc3c2CC[C@@H]3Oc2cncc(-c3cnn(C)c3)c2)c1` [Compound 19j]: the inhibition at 0.01 µM was 80.1% on CSF-1R, 86.1% on DDR1 and 14.5% on KIT. Also, the inhibition at 0.1 µM at CSF-1R stood at 101%; at DDR1, 96.7%; at KIT it was 62.8%.
On to `Cc1cc(NC(=O)c2cccc3c2CC[C@@H]3Oc2cncc(-c3cnn(C)c3)c2)cc(C)n1` [Compound 19k, (S)—N-(2,6-dimethylpyridin-4-yl)-1-((5-(1-methyl-1H-pyrazol-4-yl)pyridin-3-yl)oxy)-2,3-dihydro-1H-indene-4-carboxamide], for which the inhibition at 0.01 µM on CSF-1R stood at 57.6%; on DDR1, 81.4%; on KIT it was 21.8%. The inhibition at 0.1 µM on CSF-1R turned out to be 97.4%; at DDR1, 89.9%; on KIT it was 63.7%.
Consider `CN(c1cncc(-c2cnn(C)c2)c1)[C@H]1CCc2c(C(=O)Nc3cncc(Cl)c3)cccc21` [Compound 21, (S)—N-(5-chloropyridin-3-yl)-1-(methyl (5-(1-methyl-1H-pyrazol-4-yl)pyridin-3-yl)amino)-2,3-dihydro-1H-indene-4-carboxamide], for which the values for the inhibition at 0.01 µM on CSF-1R, on DDR1 and at KIT were 48.6%, 29.7% and 2.4%, respectively. For the same compound, the inhibition at 0.1 µM on CSF-1R is 100%; at DDR1, 88%; on KIT, 15.3%.
In the case of `CN(c1cncc(-c2cnn(C)c2)c1)[C@H]1CCc2c(C(=O)Nc3cccc(C4CC4)c3)cccc21` [Compound 22a, (S)—N-(3-cyclopropylphenyl)-1-(methyl (5-(1-methyl-1H-pyrazol-4-yl)pyridin-3-yl)amino)-2,3-dihydro-1H-indene-4-carboxamide], the inhibition at 0.01 µM stood at 34% on CSF-1R, 32.4% on DDR1 and 5.8% at KIT. The inhibition at 0.1 µM came to 96.7% at CSF-1R, 86% at DDR1 and 27.2% on KIT.
As to `Cn1cc(-c2cncc(N[C@H]3CCc4c(C(=O)Nc5nn(C)c6ccccc56)cccc43)n2)cn1` [Compound 27g, (S)—N-(1-methyl-1H-indazol-3-yl)-1-((6-(1-methyl-1H-pyrazol-4-yl)pyrazin-2-yl)amino)-2,3-dihydro-1H-indene-4-carboxamide], the inhibition at 0.01 µM on CSF-1R was determined as 75.2%; on DDR1, 92.1%; at KIT it was 89.6%. In addition, the results for the inhibition at 0.1 µM at CSF-1R, at DDR1 and on KIT were 95.8%, 101% and 100%, respectively.
`Cn1cc(-c2cncc(N[C@H]3CCc4c(Nc5cc(C(C)(C)C)on5)cccc43)c2)cn1` [Compound 41, (S)—N^4-(5-(tert-butyl)isoxazol-3-yl)-N^1-(5-(1-methyl-1H-pyrazol-4-yl)pyridin-3-yl)-2,3-dihydro-1H-indene-1,4-diamine]: the inhibition at 0.01 µM turned out to be 26.9% at CSF-1R, 20.2% on DDR1 and 7.5% at KIT. The figures for the inhibition at 0.1 µM on CSF-1R, on DDR1 and at KIT were 100%, 78.2% and 66.4%, respectively.
Take `Cn1cc(-c2cncc(N[C@H]3CCc4c(Nc5noc(C(C)(C)C)n5)cccc43)c2)cn1` [Compound 42o]: the inhibition at 0.01 µM at CSF-1R was determined as 55.8%; at DDR1 it was 4.1%; on KIT, 14.5%. Further, the results for the inhibition at 0.1 µM on CSF-1R, on DDR1 and on KIT were 100%, 67.6% and 38.8%, respectively.
For the compound `Cn1ncc2ncc(N[C@H]3CCc4c(C(=O)Nc5cccc(C6CC6)c5)cccc43)cc21` [Compound 73, (S)—N-(3-cyclopropylphenyl)-1-((1-methyl-1H-pyrazolo[4,3-b]pyridin-6-yl)amino)-2,3-dihydro-1H-indene-4-carboxamide], the inhibition at 0.01 µM at CSF-1R was 70.2%; on DDR1, 72.5%; on KIT, 59.1%. Further, the inhibition at 0.1 µM worked out at 101% on CSF-1R, 103% at DDR1 and 99.7% at KIT.
